From ChEMBL document CHEMBL1136596, “Four novel bis-(naphtho-gamma-pyrones) isolated from Fusarium species as inhibitors of HIV-1 integrase” (Bioorg Med Chem Lett, 2003) come the findings set out here.

Some results are limits rather than exact numbers.

In general, IC50 refers to the point on the concentration scale where inhibition reaches its midpoint. Low readings indicate higher potency, high ones lower potency.

In assay [1] the target is T1, Human immunodeficiency virus type 1 integrase (Human immunodeficiency virus 1, UniProt Q7ZJM1). Put plainly: Inhibition of HIV-1 integrase in strand transfer assay.
In assay [2] the target is T1, Human immunodeficiency virus type 1 integrase. The experiment in a line: Inhibition of HIV-1 integrase in coupled transfer assay.
The subject of assay [3] is Human immunodeficiency virus 1. The experiment in a line: Viral protection was determined in a 24 hr HIV-1 viral infectivity assay. In kind it is functional, organism-based.

T1 sequence (Q7ZJM1 whole entry): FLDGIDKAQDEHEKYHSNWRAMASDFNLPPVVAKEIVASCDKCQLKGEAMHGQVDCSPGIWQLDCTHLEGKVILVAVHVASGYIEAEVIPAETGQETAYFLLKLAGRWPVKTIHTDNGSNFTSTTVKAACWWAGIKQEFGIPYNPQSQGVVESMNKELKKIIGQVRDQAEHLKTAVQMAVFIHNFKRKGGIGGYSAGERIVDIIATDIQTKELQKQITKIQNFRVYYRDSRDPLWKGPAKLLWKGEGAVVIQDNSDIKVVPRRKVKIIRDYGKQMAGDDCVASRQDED

For the molecule `C[C@@H]1Oc2cc3c(-c4c(O)cc(O)c5c(O)c6c(cc45)O[C@H](C)[C@@H](C)C(=O)O6)c(O)cc(O)c3c(O)c2C(=O)[C@@H]1C`, the figures for the IC50 in assay [1] and in assay [2] were 9 µM and 3 µM, respectively.

In the case of `CC1Oc2cc3c(-c4c(O)cc(O)c5c(O)c6c(cc45)OC(C)C(C)C6=O)c(O)cc(O)c3c(O)c2C(=O)C1C` (stereo in doubt; form 1), the IC50 worked out at 12 µM in assay [1]; 3 µM in assay [3] (Human immunodeficiency virus 1, 24 h); 2 µM in assay [2].

As to `COc1cc(O)c2c(OC)c3c(cc2c1-c1c(OC)cc(OC)c2c(OC)c4c(cc12)OC(C)C(C)C4=O)OC(C)C(C)C3=O` (configuration not stated), the IC50 in assay [1] is more than 100 µM; in assay [2], 40 µM.

On to `COc1cc(OC)c2c(OC)c3c(cc2c1-c1c(OC)cc(OC)c2c(OC)c4c(cc12)OC(C)C(C)C4=O)OC(C)C(C)C3=O` (configuration not stated), for which the figures for the IC50 in assay [1] and in assay [2] were more than 100 µM and 60 µM, respectively.

Turning to `COc1cc(O)c2c(O)c3c(cc2c1-c1c(OC)cc(OC)c2c(OC)c4c(cc12)OC(C)C(C)C4=O)OC(C)C(C)C3=O` (stereo in doubt; 9d), the figures for the IC50 in assay [1] and in assay [2] were more than 100 µM and 80 µM, respectively.

In the case of `CC1Oc2cc3c(-c4c(O)cc(O)c5c(O)c6c(cc45)OC(C)C(C)C6=O)c(O)cc(O)c3c(O)c2C(=O)C1C` (stereo in doubt; form 2), the figures for the IC50 in assay [1], in assay [3] and in assay [2] were 12 µM, 2 µM and 2 µM, respectively.

Take `COc1cc(O)c2c(OC)c3c(cc2c1-c1c(O)cc(OC)c2c(OC)c4c(cc12)OC(C)C(C)C4=O)OC(C)C(C)C3=O` (configuration not stated): the values for the IC50 in assay [1] and in assay [2] were more than 100 µM and 8 µM, respectively.

Take `COc1cc(O)c2c(O)c3c(cc2c1-c1c(OC)cc(OC)c2c(OC)c4c(cc12)OC(C)C(C)C4=O)OC(C)C(C)C3=O` (stereo in doubt; 9e): the results for the IC50 in assay [1] and in assay [2] were more than 100 µM and 40 µM, respectively.

As for `CC(=O)Oc1cc(OC(C)=O)c2c(OC(C)=O)c3c(cc2c1-c1c(OC(C)=O)cc(OC(C)=O)c2c(OC(C)=O)c4c(cc12)OC(C)C(C)C4=O)OC(C)C(C)C3=O` (configuration not stated), the IC50 in assay [1] is more than 100 µM; in assay [2], 50 µM.

For `Cc1oc2cc3c(-c4c(O)cc(O)c5c(O)c6c(cc45)O[C@H](C)[C@H](C)C6=O)c(O)cc(O)c3c(O)c2c(=O)c1C`, the IC50 is 4 µM in assay [1] and 1 µM in assay [2].
